In the assay the target is Bromodomain-containing protein 4 (Homo sapiens, UniProt O60885). Briefly: Alphascreen Binding Assay: Binding of compounds of formula (I) with bromodomain 2, 3 4 was assessed using Alphascreen binding assay. The inhibition of the interaction between bromodomain and its acetylated target protein (Filippakopoulos P et al. 2012) was measured quantitatively using recombinant BRD proteins, an acetylated Histone 4 peptide and AlphaScreen technology. In absence of inhibition the BRD protein bound to AlphaScreen nickel chelate acceptor beads can interact with the acetylated Histone 4 peptide which is immobilized by the AlphaScreen Streptavidin coated beads. This interaction brings donor and acceptor beads in proximity. The close proximity allows the singlet oxygen produced by laser excitation of the donor beads to reach the acceptor beads and generate a luminescence signal. BRD inhibitors result in a decrease in the proximity signal through an inhibition of the BRD-acetylated peptide interaction.Recombinant human bromodomains containing the N-terminal bromodomain (BRD2-BD1 (71-194), BRD3-BD1 (24-144) and BRD4-BD1 (44-164)) or dual bromodomains (BRD4-BD12 (1-477), BRD4-BD12 (1-472)) were prepared and purified as described in protein expression and purification session.

The structures appear in SMILES notation.

As to `Cc1noc(C)c1-c1cnc2c(c1)c(CC1CCN(S(=O)(=O)c3ccccc3)CC1)cn2C`, the IC50 (commonly the concentration needed to halve the response being measured) is < 1 µM.

The values above are taken from ChEMBL document CHEMBL5727461, “Heterocyclic compounds and uses thereof” (2019).
